Measured values published in patent publication US9718823B2, “2, 6-Di-nitrogen-containing substituted purine derivative, and preparation method, pharmaceutical composition and use thereof” (Zhejiang Medicine Co., Ltd. Xinchang Pharmaceutical Factory, priority 2013, dated 2017).
Like-named read-outs stand apart in the source and are kept apart here.

Assays:
Assay type in all cases: biochemical
PI3Kδ = molecular target: T1, PI3Kδ (Homo sapiens, UniProt O00329); test: Inhibitory activity to PI3K δ, PI 3-Kinase (human) HTRF Assay kit; conditions: for inhibition at 0.4 µM: 0.4 μM (Table 8); for inhibition at 2 µM: 2 μM (Table 8); for inhibition at 1 µM: 1 μM (Table 7)
T1 construct: purchased Millipore 14-604
Method: Study on the inhibitory activity of the compounds of present invention to PI 3κα, PI3κδ and PI3κγ.
(§1) PI 3-Kinase (human) HTRF™ Assay kit (Cat.33-017, Millipore)
For example, 10 μL DTT is added into 500 μL 4× Reaction Buffer, and water is added to 1.5 mL.
The Test compounds are dissolved with DMSO to 1 mM as storage liquid. 2 μL of each of storage liquid is added into 48 μL ddH2O, to obtain the 40 μM compounds solution containing 4% DMSO. After mixing, 3 μL of each of the solution is added into 27 μL 4% DMSO (in ddH2O) to obtain the 4 μM compounds solution. […]
The screening concentration of PI 3k δ kinase: 2 ng/well,
(§2) Kinase is diluted with 2×PIP2 operating fluid, the concentration of kinase operating fluid is 2 times of screening concentration.
The concentration of ATP is 100 μM in 20 μL kinase reaction system.
(§3) Stop A and Stop B are mixed according to the proportion of 3:1, and are placed for 2 hours at room temperature to obtain the stop solution available.
(§4) DM C, DM A and DM B are mixed according to the proportion of 18:1:1, and are placed for 2 hours at room temperature to obtain the detection solution available.

PDGFR β enzyme = molecular target: T2, PDGFR β enzyme (Homo sapiens, UniProt P09619); test: Inhibitory activity to PDGFR β enzyme, HTRF kinEASE TK kit; conditions: read-out: Inhibition rate % (PDGFR β)
T2 construct: purchased Invitrogen P3082
Method: HTRF kinEASE TK (Cat.62TK0PEC, Cisbio)
PDGFR β enzyme (Cat.P3082, Invitrogen)
1 mL 1×Kinase Buffer includes 200 μL 5×Enzyme buffer, 5 μL 1M MgCl2, 1 μL 1M DTT, 1 μL 1M MnCl2, 20 μL 2500 nM SEB, 773 μL ddH2O.
TK-Substrate and ATP are diluted to 2.5 times of reaction concentration with 1×PDGFR β Kinase Buffer.
5×PDGFR β enzyme working solution is prepared with 1×PDGFR β kinase buffer.
4×Sa-XL665 working solution is prepared with Detection Buffer.
TK-Ab-Cryptate is diluted 100 times with Detection Buffer to use as working solution.

PI3 K γ = molecular target: T3, PI3 K γ (Homo sapiens, UniProt P48736); test: Inhibitory activity to PI3K γ, PI 3-Kinase (human) HTRF Assay kit; conditions: read-out: Inhibition rate % to PI3 K γ
T3 construct: purchased Biology, Medicilon
Text: Study on the inhibitory activity of the compounds of present invention to PI 3κα, PI3κδ and PI3κγ. Two or three concentrations of the compounds are selected to preliminary screening to calculate respectively the activity inhibition rate of the compounds of corresponding concentrations to enzyme, then the compounds with better activity are selected by preliminary screening for IC50 test.
as §1
PI 3k γ (Biology, Medicilon)
4× Reaction Buffer (Cat.33-002, Millipore) is diluted with ddH2O to 1.33×, and 1M DTT is added to make the final concentration as 6.67 mM. For example, 10 μL DTT is added into 500 μL 4× Reaction Buffer, and water is added to 1.5 mL.
The Test compounds are dissolved with DMSO to 1 mM as storage liquid. 2 μL of each of storage liquid is added into 48 μL ddH2O, to obtain the 40 μM compounds solution containing 4% DMSO. After mixing, 3 μL of each of the solution is added into 27 μL 4% DMSO (in ddH2O) to obtain the 4 μM compounds solution. 5 μL of each dilute solution is added into 384-well plates, then the final concentration of the compounds in the 20 μL final kinase reaction system is 10 μM and 1 μM respectively contained 1% DMSO. The dilution methods of compounds are similar to the preliminary screening in IC50 test.
2×PIP2 working fluid is prepared with 1.33× reaction buffer to the final concentration of 20 μM.
The screening concentration of PI 3k γ kinase: 80 ng/well,
as §2
10 mM ATP is diluted with 1.33× reaction buffer to 400 μM. The concentration of ATP is 100 μM in 20 μL kinase reaction system.
as §3, §4

[1] = read-out: Inhibition rate % to PI3K delta
[2] = 10 μM (Table 8), read-out: Inhibition rate % to PI3K delta
[3] = read-out: Inhibition rate % to PI3Kδ
[4] = 10 μM (Table 7), read-out: Inhibition rate % to PI3Kδ

T3 sequence (P48736 whole entry): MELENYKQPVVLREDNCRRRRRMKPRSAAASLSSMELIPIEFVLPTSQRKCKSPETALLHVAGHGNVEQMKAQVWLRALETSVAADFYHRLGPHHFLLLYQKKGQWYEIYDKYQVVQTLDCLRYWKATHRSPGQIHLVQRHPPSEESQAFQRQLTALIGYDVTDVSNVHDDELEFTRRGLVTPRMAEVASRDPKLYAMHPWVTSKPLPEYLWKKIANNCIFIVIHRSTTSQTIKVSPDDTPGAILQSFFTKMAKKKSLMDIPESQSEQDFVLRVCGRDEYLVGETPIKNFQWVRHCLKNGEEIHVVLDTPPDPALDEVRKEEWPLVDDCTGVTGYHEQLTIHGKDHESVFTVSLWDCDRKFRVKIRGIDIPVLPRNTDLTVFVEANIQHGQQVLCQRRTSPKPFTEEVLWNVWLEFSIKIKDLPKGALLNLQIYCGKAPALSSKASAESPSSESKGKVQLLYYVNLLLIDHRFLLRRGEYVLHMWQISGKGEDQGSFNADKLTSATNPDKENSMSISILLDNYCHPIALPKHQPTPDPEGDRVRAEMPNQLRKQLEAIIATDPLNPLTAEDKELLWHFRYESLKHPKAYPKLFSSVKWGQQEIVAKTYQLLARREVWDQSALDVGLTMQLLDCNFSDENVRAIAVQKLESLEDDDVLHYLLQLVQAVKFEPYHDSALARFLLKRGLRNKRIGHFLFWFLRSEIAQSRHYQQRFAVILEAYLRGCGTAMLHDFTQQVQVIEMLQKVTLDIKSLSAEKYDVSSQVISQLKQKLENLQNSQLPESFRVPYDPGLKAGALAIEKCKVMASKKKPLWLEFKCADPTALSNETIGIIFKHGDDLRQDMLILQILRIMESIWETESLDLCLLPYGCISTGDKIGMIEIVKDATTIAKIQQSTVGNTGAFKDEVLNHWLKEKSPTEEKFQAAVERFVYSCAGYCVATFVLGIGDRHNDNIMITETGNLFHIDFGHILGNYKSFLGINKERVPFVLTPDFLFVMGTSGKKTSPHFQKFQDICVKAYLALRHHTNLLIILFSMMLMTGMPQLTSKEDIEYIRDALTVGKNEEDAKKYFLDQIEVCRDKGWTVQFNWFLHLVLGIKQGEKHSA
T2 sequence (P09619 33-1106): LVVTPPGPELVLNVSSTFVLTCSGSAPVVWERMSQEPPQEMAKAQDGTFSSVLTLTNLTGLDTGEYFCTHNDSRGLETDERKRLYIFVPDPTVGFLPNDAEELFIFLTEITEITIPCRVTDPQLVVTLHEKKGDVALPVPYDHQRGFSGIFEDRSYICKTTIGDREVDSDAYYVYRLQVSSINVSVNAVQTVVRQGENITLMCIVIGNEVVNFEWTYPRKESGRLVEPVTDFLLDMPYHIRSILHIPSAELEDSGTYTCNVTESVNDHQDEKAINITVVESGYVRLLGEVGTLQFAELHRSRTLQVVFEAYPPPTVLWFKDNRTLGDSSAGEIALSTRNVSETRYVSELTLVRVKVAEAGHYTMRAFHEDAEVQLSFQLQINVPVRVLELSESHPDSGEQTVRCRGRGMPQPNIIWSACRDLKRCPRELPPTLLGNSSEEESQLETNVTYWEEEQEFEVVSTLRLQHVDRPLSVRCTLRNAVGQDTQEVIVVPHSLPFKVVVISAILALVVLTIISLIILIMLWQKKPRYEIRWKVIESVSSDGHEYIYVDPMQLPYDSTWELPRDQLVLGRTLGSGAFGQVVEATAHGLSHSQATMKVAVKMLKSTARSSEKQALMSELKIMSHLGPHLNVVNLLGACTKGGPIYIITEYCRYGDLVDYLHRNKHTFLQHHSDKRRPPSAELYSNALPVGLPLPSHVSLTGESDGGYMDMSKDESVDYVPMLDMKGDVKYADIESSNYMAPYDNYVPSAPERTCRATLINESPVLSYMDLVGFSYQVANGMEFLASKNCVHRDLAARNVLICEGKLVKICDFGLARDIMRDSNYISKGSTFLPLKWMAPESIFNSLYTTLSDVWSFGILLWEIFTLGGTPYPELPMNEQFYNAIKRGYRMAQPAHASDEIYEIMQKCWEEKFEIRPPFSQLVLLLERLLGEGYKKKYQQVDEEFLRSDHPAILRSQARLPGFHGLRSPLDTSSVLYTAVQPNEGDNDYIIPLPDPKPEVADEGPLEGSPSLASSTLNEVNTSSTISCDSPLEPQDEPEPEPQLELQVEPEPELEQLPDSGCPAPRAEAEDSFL
T1 sequence (O00329 whole entry): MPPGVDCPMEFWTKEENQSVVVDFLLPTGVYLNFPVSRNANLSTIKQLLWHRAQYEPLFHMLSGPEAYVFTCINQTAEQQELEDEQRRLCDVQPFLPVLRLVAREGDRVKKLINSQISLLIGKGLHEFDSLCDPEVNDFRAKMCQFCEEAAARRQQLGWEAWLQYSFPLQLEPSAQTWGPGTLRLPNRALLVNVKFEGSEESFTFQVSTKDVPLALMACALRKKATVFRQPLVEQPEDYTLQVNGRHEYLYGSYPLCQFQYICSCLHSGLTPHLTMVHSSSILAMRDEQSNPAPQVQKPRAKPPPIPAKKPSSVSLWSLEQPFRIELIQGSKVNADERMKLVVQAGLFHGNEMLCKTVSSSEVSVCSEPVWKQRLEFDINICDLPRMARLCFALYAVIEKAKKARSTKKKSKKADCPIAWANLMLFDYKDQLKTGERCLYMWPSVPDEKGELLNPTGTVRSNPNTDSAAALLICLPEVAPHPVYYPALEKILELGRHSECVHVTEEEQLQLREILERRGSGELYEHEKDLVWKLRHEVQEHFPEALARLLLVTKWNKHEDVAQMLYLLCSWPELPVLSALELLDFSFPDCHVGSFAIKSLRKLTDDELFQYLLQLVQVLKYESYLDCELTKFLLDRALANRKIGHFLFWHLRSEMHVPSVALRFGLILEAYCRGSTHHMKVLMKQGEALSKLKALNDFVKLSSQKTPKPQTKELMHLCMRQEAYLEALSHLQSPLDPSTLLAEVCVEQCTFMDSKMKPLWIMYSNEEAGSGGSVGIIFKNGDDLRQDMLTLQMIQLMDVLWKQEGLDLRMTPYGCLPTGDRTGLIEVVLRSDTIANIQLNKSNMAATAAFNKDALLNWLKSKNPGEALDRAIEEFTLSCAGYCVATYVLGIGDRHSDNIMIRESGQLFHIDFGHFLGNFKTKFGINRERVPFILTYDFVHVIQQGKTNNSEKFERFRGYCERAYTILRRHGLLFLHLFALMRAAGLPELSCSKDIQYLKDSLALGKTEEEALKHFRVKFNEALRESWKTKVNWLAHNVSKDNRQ
T1 sequence (P27986 whole entry partner): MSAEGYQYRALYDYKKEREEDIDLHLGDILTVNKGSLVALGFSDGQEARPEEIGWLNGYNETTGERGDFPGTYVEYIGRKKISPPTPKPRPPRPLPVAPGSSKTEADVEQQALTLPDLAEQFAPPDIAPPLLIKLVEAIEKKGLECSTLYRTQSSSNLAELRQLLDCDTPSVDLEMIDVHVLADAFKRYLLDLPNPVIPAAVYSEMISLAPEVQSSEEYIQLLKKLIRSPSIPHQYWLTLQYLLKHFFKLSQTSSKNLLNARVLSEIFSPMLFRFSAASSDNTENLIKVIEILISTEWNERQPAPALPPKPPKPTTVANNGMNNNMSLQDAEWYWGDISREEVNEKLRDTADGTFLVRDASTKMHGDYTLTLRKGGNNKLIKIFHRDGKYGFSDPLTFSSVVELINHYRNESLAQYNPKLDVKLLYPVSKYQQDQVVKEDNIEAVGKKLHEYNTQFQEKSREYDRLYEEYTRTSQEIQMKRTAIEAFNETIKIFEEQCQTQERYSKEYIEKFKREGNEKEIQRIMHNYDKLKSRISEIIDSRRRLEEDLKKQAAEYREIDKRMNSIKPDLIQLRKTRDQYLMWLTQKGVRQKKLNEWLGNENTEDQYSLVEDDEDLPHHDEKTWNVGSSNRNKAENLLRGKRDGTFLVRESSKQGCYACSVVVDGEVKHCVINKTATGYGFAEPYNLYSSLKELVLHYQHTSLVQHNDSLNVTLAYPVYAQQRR

SMILES	inhibition at 0.4 µM (PI3Kδ; [1]) [%]	inhibition at 2 µM (PI3Kδ; [1]) [%]	inhibition at 10 µM (PI3Kδ; [2]) [%]	inhibition at 1 µM (PDGFR β enzyme; 1 μM) [%]	inhibition at 10 µM (PDGFR β enzyme) [%]	inhibition at 1 µM (PI3Kδ; [3]) [%]	inhibition at 10 µM (PI3Kδ; [4]) [%]	inhibition at 1 µM (PI3 K γ) [%]	inhibition at 10 µM (PI3 K γ) [%]	inhibition at 1 µM (PDGFR β enzyme) [%]
Cc1ccnc2ccc(Nc3nc(NC4CC4)c4nc[nH]c4n3)cc12 [MED1007-113, N6-cyclopropyl-N2-(4-methylquinoline-6-yl)-9H-purine-2,6-diamine dihydrate di-methanesulfonate]	30	37.7	68.9							
COC(=O)C1(Nc2nc(Nc3ccc4nccc(-c5ccccc5)c4c3)nc3[nH]cnc23)CC1 [MED1007-15, 1-(2-(4-phenylquinoline-6-ylamino)-9H-purine-6-ylamino)cyclopropane carboxylic acid methyl ester]				31.2	93.5	1.25	8.64	10.4	19.1	
Oc1nc(Nc2ccc3nccc(-c4ccccc4)c3c2)nc2[nH]cnc12 [MED1007-110, 2-(4-phenylquinoline-6-ylamino)-9H-purine-6-ol]	6.26	2.94	12.6							
Fc1cccc(-c2ccnc3ccc(Nc4nc(NC5CC5)c5nc[nH]c5n4)cc23)c1 [MED1007-64, N6-cyclopropyl-N2-(4-(3-fluorophenyl)quinoline-6-yl)-9H-purine-2,6-diamine]				-3.26	20.1	14.1	88.7	-4.23	15.9	
c1cc(N2CCOCC2)c2cc(Nc3nc(NC4CC4)c4nc[nH]c4n3)ccc2n1 [MED1007-32, N6-cyclopropyl-N2-(4-morpholinequinoline-6-yl)-9H-purine-2,6-diamine]				9.16	24.5	31	42.1	-13.7	4.28	
CC(C)Oc1nc(Nc2ccc3ncccc3c2)nc2[nH]cnc12 [MED1007-34, N-(6-isopropoxy-9H-purine-2-yl) quinoline-6-amine]				53.8	98.8	40.2	69.8	24.4	57.3	
CN[C@@H]1C[C@H]2O[C@@](C)([C@@H]1OC)n1c3ccccc3c3c4c(c5c6ccccc6n2c5c31)C(=O)NC4 [Staurosporine, reference compound]										99.8
c1ccc(-c2ccnc3ccc(Nc4nc(N5CCOCC5)c5nc[nH]c5n4)cc23)cc1 [MED1007-109, N-(6-morpholine-9H-purine-2-yl)-4-phenyl quinoline-6-amine]	22.6	44	91.6							
CCc1ccnc2ccc(Nc3nc(NC4CC4)c4nc[nH]c4n3)cc12 [MED1007-114, N6-cyclopropyl-N2-(4-ethylquinoline-6-yl)-9H-purine-2,6 diamine dihydrate di-methanesulfonate]	28.4	49.1	78.9							
c1cc(N2CCNCC2)c2cc(Nc3nc(NC4CC4)c4nc[nH]c4n3)ccc2n1 [MED1007-33, N6-cyclopropyl-N2-(4-(piperazine-1-yl)quinoline-6-yl)-9H-purine-2,6-diamine]				4.71	25.6	21.4	63	21	20	
CC(C)Oc1nc(Nc2ccc3nccc(-c4cccc(F)c4)c3c2)nc2[nH]cnc12 [MED1007-135, 4-(3-fluorophenyl)-N-(6-isopropoxy-9H-purine-2-yl) quinoline-6-amine-methanesulfonate]	27.2	59.6	83.4							
COc1cccc(-c2ccnc3ccc(Nc4nc(NC5CC5)c5nc[nH]c5n4)cc23)c1 [MED1007-61, N6-cyclopropyl-N2-(4-(3-methoxyphenyl)quinoline-6-yl)-9H-purine-2,6-diamine]				4.72	55	16.7	102	-8.18	20.4	
COC(=O)c1ccc(-c2ccnc3ccc(Nc4nc(NC5CC5)c5nc[nH]c5n4)cc23)cc1 [MED1007-59, 4-(6-(6-(cyclopropylamino)-9H-purine-2-ylamino)quinoline-4-yl) p-methyl benzoate]				4.39	0.93	18	59	0.83	4.97	
COc1ccc(-c2ccnc3ccc(Nc4nc(OC(C)C)c5nc[nH]c5n4)cc23)cc1OC [MED1007-137, 4-(3,4-dimethoxyphenyl)-N-(6-isopropoxy-9H-purine-2-yl) quinoline-6-amine-methanesulfonate]	27.6	63.3	99.1							
CC(C)Oc1nc(Nc2ccc3nccc(-c4ccc5c(c4)OCO5)c3c2)nc2[nH]cnc12 [MED1007-133, 4-(benzo[1,3]-dioxole-5-yl)-N-(6-isopropoxy-9H-purine-2-yl) quinoline-6-amine-methanesulfonate]	20.8	69	83.4							
CC(C)Oc1nc(Nc2ccc3nccc(-c4ccc(F)cc4)c3c2)nc2[nH]cnc12 [MED1007-136, 4-(4-fluorophenyl)-N-(6-isopropoxy-9H-purine-2-yl) quinoline-6-amine-methanesulfonate]	15.7	44.8	80.5							
CC(C)Oc1nc(Nc2ccc3nccc(N4CCNCC4)c3c2)nc2[nH]cnc12 [MED1007-58, N-(6-isopropoxy-9H-purine-2-yl)-4-(piperazine-1-yl) quinoline-6-amine]				3.93	29.5	2.11	35	-0.29	-0.98	
c1ccc(Oc2nc(Nc3ccc4nccc(N5CCNCC5)c4c3)nc3[nH]cnc23)cc1 [MED1007-54, N-(6-phenoxy-9H-purine-2-yl)-4-(piperazine-1-yl) quinoline-6-amine]				7.3	43.7	13.3	42.4	-6.81	-4.67	
Oc1nc(Nc2ccc3nccc(-c4ccc5c(c4)OCO5)c3c2)nc2[nH]cnc12 [MED1007-139, 2-(4-(benzo[1,3]-dioxole-5-yl)quinoline-6-ylamino)-9H-purine-6-ol-methanesulfonate]	4.29	15	20.1							
COc1ccc(-c2ccnc3ccc(Nc4nc(O)c5nc[nH]c5n4)cc23)cc1 [MED1007-132, 2-(4-(4-methoxy-phenyl)quinoline-6-ylamino)-9H-purine-6-ol-methanesulfonate]	-0.76	8.54	55							
